Laboratory results: ChEMBL document CHEMBL2086226, “Synthesis of paclitaxel-BGL conjugates” (Bioorg Med Chem, 2012)
The source made the active and inactive calls. No cut-off for these calls is given here.

Legend:
[1] = Octanol-water partition coefficient, log P of the compound; assay type: physicochemical
A549 = experiment: Antitumor activity against human A549 cells xenografted in nude BALB/c mouse assessed as tumor growth inhibition at 3.51 umol/kg, ip administered on day 1, 4 and 7 post-inoculation measured up to 14 days; assay type: functional, organism-based

Structure (SMILES)	logP [1]	growth inhibition (GI) (A549)
CC(=O)O[C@H]1C(=O)[C@@]2(C)[C@H]([C@H](OC(=O)c3ccccc3)[C@]3(O)C[C@H](OC(=O)[C@H](O)[C@@H](NC(=O)CCC(=O)OC(COC(CO)CO)COC(CO)CO)c4ccccc4)C(C)=C1C3(C)C)[C@]1(OC(C)=O)CO[C@@H]1C[C@@H]2O	1.46	Active
CC(=O)O[C@H]1C(=O)[C@]2(C)[C@@H](OC(=O)CCC(=O)OC(COC(CO)CO)COC(CO)CO)C[C@H]3OC[C@@]3(OC(C)=O)[C@H]2[C@H](OC(=O)c2ccccc2)[C@]2(O)C[C@H](OC(=O)[C@H](O)[C@@H](NC(=O)c3ccccc3)c3ccccc3)C(C)=C1C2(C)C	1.99	–
CC(=O)O[C@H]1C(=O)[C@@]2(C)[C@H]([C@H](OC(=O)c3ccccc3)[C@]3(O)C[C@H](OC(=O)[C@H](OC(=O)CCC(=O)OC(COC(CO)CO)COC(CO)CO)[C@@H](NC(=O)c4ccccc4)c4ccccc4)C(C)=C1C3(C)C)[C@]1(OC(C)=O)CO[C@@H]1C[C@@H]2O	2.26	–
CC(=O)O[C@H]1C(=O)[C@@]2(C)[C@H]([C@H](OC(=O)c3ccccc3)[C@]3(O)C[C@H](OC(=O)[C@H](O)[C@@H](NC(=O)c4ccccc4)c4ccccc4)C(C)=C1C3(C)C)[C@]1(OC(C)=O)CO[C@@H]1C[C@@H]2O [PACLITAXEL]	2.25	Active
